Values belong to the compound of their own block, whether it stands above or below them. Active and inactive are the calls of the source.
What was measured:
[1] = IGROV1 ovarian cancer cell cytotoxicity, dose response, PAX8 inhibitor project, plate reader, dry powder samples (AID 743043); format: functional, cell-based; conditions: IGROV-1
[2] = NIH:OVCAR-3 ovarian cancer cell cytotoxicity, dose response, PAX8 inhibitor project, plate reader, dry powder samples (AID 743044); format: functional, cell-based
[3] = cytotoxicity in OV-90 ovarian cancer cells, dose response, PAX8 inhibitor project, cell-based, plate reader, dry powder, SA8 (AID 743149); format: functional
[4] = PAX5 activity inhibitors, dose response, selectivity assay for PAX8 inhibitor project, cell-based, plate reader, dry powder samples (AID 743047); format: functional;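 note: HEK293 cells carrying a Pax5 driven CD19 promoter luciferase reporter; potency of inhibitors that lower reporter luminescence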
[5] = PAX2 cell-based inhibition, dose response, selectivity assay for PAX8 inhibitor project, plate reader, dry powder samples (AID 743048); format: functional;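 note: HEK293 cells carrying a WT1 promoter luciferase reporter driven by expressed Pax2; potency is for inhibition of Pax2 driven reporter signal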
[6] = cytotoxicity dependent on PAX8, dose response, cell-based, plate reader, dry powder (AID 743049); format: functional
[7] = non-specific cell cytotoxicity, dose response, cytotoxicity control for PAX8 inhibitor project, plate reader, dry powder samples (AID 743021); format: functional, cell-based
[8] = cytotoxicity in COV362 ovarian cancer cells, dose response, cytotoxicity control for PAX8 inhibitor project, cell-based, plate reader, dry powder, SA12 (AID 743144); format: functional
[9] = cytotoxicity in OVCAR4 cells, dose response, cytotoxicity control for PAX8 inhibitor project, cell-based, plate reader, dry powder, SA11 (AID 743150); format: functional; conditions: OVCAR-4
[10] = cytotoxicity in COV434 cells, dose response, cytotoxicity control for PAX8 inhibitor project, cell-based, plate reader, dry powder, SA7 (AID 743145); format: functional
[11] = fibronectin fibrillogenesis inhibitors in fibroblasts, dose response, AH1F cells, Alexa488-fibronectin fluorescence, cherry-pick, set 2 (AID 1117283); format: functional, cell-based
[12] = HepG2 cell cytotoxicity, dose response, cytotoxicity control, cherry-picks, set 5 (AID 1053118); format: functional, cell-based
[13] = YAP1 pathway inhibition via CTGF transcript levels, dose response, cell-based, DLD1 colon cancer, RT-qPCR, cherry-pick (AID 1053122); format: functional; conditions: Cancer cell lines
[14] = CTGF mRNA reduction under YAP1 overexpression, dose response, mechanism study for YAP1 pathway inhibitor project, DLD1 cells, RT-qPCR, cherry-pick (AID 1053127); format: functional, cell-based; conditions: DLD-1
[15] = P. falciparum Dd2 growth inhibitors, dose response, SYBR Green, cherry-picked samples (AID 1159567); format: functional, cell-based
[16] = HepG2 cell cytotoxicity, dose response, cytotoxicity control, cherry-picked samples (AID 1159577); format: functional, cell-based
[17] = molecular target: NAD-dependent protein deacylase sirtuin-5, mitochondrial (Homo sapiens, UniProt Q9NXA8); test: SIRT5 deacylase inhibitors, dose response, biochemical, fluorescence imaging, cherry-pick, set 6 (AID 720597)
Chain of NAD-dependent protein deacylase sirtuin-5, mitochondrial (Q9NXA8 whole entry): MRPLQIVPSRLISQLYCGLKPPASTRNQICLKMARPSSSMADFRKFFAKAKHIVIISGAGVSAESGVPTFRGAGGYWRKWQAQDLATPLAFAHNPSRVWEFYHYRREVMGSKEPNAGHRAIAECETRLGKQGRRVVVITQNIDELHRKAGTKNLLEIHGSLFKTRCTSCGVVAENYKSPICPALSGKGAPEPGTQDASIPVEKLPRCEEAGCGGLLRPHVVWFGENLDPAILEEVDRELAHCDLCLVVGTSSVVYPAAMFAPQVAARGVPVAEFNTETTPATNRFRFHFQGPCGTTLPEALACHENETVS

[18] = A375 melanoma cell cytotoxicity, dose response, counter-screen for MITF inhibitor project, CellTiter-Glo luminescence, dry powder, set 2 (AID 624489); format: functional, cell-based; conditions: A-375;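 note: actives are compounds lowering A375 viability meaning general cytotoxicity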
[19] = A375 melanoma cell viability loss, dose response, counter-screen for MITF inhibitor project, CellTiter-Glo luminescence, dry powder, set 4 (AID 624364); format: functional, cell-based; conditions: A-375;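 note: A375 melanoma cells are MITF independent so this is a counter screen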
cells = conditions: HEK293
[20] = molecular target: T1, Low molecular weight phosphotyrosine protein phosphatase (Homo sapiens, UniProt P24666); test: LMPTP phosphatase inhibitors, colorimetric pNPP readout, dose response, orthogonal assay, biochemical, absorbance, pNPP substrate, LMPTP-A isoform, set 2 (AID 743308); format: functional
T1 sequence (P24666 whole entry): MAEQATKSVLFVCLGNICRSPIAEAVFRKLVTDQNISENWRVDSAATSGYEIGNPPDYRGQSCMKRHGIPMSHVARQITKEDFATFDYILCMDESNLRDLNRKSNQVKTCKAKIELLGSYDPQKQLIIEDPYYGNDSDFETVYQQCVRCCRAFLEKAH

[21] = molecular target: T1, Low molecular weight phosphotyrosine protein phosphatase; test: LMPTP phosphatase inhibitors, dose response, biochemical, OMFP substrate, fluorescence intensity, set 2 (AID 743307); format: functional
[22] = molecular target: G-protein coupled receptor 183 (Homo sapiens, UniProt P32249); test: SAR confirmation of small molecule antagonists of the EBI2 receptor via a luminescent beta-arrestin assa.; format: functional
Chain of G-protein coupled receptor 183 (P32249 whole entry): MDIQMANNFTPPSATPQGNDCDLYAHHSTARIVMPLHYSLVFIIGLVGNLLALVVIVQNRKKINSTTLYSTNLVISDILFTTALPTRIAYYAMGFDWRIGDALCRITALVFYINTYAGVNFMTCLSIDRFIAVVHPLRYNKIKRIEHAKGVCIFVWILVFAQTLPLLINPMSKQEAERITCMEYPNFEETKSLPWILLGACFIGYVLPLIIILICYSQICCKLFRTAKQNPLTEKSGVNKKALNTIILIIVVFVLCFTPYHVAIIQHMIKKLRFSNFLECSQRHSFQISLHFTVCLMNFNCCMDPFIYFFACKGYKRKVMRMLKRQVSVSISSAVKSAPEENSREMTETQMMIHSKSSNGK

[23] = cytotoxicity toward Colo320 cells – cell-based, CellTiter-Glo luminescence, IC50, dose response (AID 1117334); format: functional; conditions: COLO 320
[24] = CellTiter-Glo luminescent dose response of DLD-1 viability loss (AID 1117352); format: functional
[25] = RKO cell viability reduction, dose response, CellTiter-Glo luminescence (AID 1117322); format: functional
[26] = Concentration-dependent survival of SW480 colon cancer line, luminescence detection with CellTiter-Glo, half-maximal inhibitory concentration (AID 1117338); format: functional
[27] = HeLa 4N DNA content increase, dose response, cell-based, IC50 (AID 1117351); format: functional
[28] = SNU-C1 cell viability reduction, dose response, CellTiter-Glo luminescence (AID 1117323); format: functional, cell-based
[29] = HCT116 cell viability decrease, GSK3B pretreatment – CellTiter-Glo, IC50, dose response (AID 1117339); format: functional; conditions: HCT-116
[30] = cytotoxicity toward HT-29 cells – cell-based, CellTiter-Glo luminescence, IC50, dose response (AID 1117330); format: functional
[31] = cytotoxicity toward HCT116 cells – cell-based, CellTiter-Glo luminescence, IC50, dose response (AID 1117332); format: functional; conditions: HCT-116
[32] = HeLa 2N DNA content increase, dose response, cell-based, IC50 (AID 1117349); format: functional

SMILES: CN(C)CCN(C(=O)/C=C/c1cccs1)c1nc2c(F)cc(F)cc2s1
AC50 [1]: 34.3 µM (active)
AC50 [2]: 29.1 µM (active)
AC50 [3]: 32.8 µM (active)
AC50 [4]: > 100 µM (inactive)
AC50 [5]: > 100 µM (inactive)
AC50 [6]: 19.4 µM (active)
AC50 [7]: 11.6 µM (active)
AC50 [8]: 21.2 µM (active)
AC50 [9]: 31.2 µM (active)
AC50 [10]: 44.9 µM (active)

SMILES: COc1ccc([N+](=O)[O-])cc1NS(=O)(=O)c1ccc(C(=O)N2CCCC2)cc1
AC50 [11]: 51 µM (active)
AC50 [12]: > 52 µM (inactive)

SMILES: C[C@@H]1CN([C@H](C)CO)C(=O)c2ccccc2-c2ccccc2CO[C@@H]1CN(C)Cc1ccc(Oc2ccccc2)cc1
AC50 [13]: 6.79 µM (active)
AC50 [14]: 7.84 µM (active)
AC50 [15]: 6.67 µM (active)
AC50 [16]: 19.8 µM (active)

AC50 [17]: 13.2 µM (active)
SMILES: COCC(=O)N1C[C@H](C)[C@H](OC)CN(C)C(=O)c2cc(NC(=O)C3CCC3)ccc2OC[C@@H]1C

SMILES: CCN1CCN(C2=C(NS(=O)(=O)c3ccc(Br)s3)C(=O)c3ccccc3C2=O)CC1
AC50 [18]: > 70 µM (inactive)
AC50 [19]: > 70 µM (inactive)

SMILES: Fc1ccc2c(c1)[nH]c(=S)n2CCOc1ccccc1
AC50 (cells): > 52 µM (inactive)

IC50 [20]: > 80 µM (inactive)
IC50 [21]: 23.2 µM (inactive)
SMILES: CCCCNc1nc(-c2ccccc2)nc2ccccc12

IC50 [22]: 0.00958 µM (active)
SMILES: COc1ccc(/C=C/C(=O)N2CCN(S(=O)(=O)c3ccc(Br)cc3)CC2)cc1

SMILES: CCC(=O)c1ccc(O)cc1 [PAROXYPROPIONE]
IC50 [23]: > 20 µM (inactive)
IC50 [24]: 6.67 µM (inactive)
IC50 [25]: 7.8 µM (inactive)
IC50 [26]: 4.1 µM (active)
IC50 [27]: > 10 µM (inactive)
IC50 [28]: > 20 µM (inactive)
IC50 [29]: 6.25 µM (inactive)
IC50 [30]: > 20 µM (inactive)
IC50 [31]: > 20 µM (inactive)
IC50 [32]: > 10 µM (inactive)

Source: ChEMBL document CHEMBL1201862, “PubChem BioAssay data set” (2004)
